Test system: VA-ES-BJ tumor spheroid viability
Test: Anticancer human tumor VA-ES-BJ cell line growth inhibition;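 further: spheroids exposed to compounds for seven days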;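 on viability, T/C: percent of DMSO vehicle control viability so 100% = untreated growth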
Settings: spheroids with HUVEC and MSC; for IC50: curve of first compound; for viability, T/C: stronger effect = lower value; active means viability on the fitted dose curve at most 10% of control; inactive means the rest
Excerpt: Multicellular complex tumor spheroid response to DNA repair inhibitors in combination with DNA-damaging drugs
This study explores the anticancer activities of DNA-damaging drugs and inhibitors of DNA damage repair, both as single agents and in combinations. Complex tumor spheroids comprised of malignant cells, endothelial cells and mesenchymal stem cells served as an in vitro model for human solid tumors. This model system incorporates physiologically relevant features and patient-derived or established malignant cell lines with clinically relevant genetic alterations from many tumor types. Twenty-six patient-derived or established malignant cell lines were evaluated representing sarcoma, melanoma, small cell lung cancer (SCLC), non-small cell lung cancer (NSCLC), as well as bladder, ovarian and pancreatic cancers. The concentration ranges selected for each drug and investigational agent were based upon clinically achievable concentrations if the clinical Cmax of the agent was known.
Compounds. The drugs and compounds olaparib (NSC753686), talazoparib (NSC767125), berzosertib (NSC777718), elimusertib (NSC800525), nedisertib (NSC802822), VX-984 (NSC792969), AZD-1390 (NSC803789), temozolomide (NSC362856), topotecan (NSC609699), trabectedin (NSC813783), staurosporine (NSC755774), and gemcitabine (NSC613327) were obtained from the National Cancer Institute (NCI) Developmental Therapeutics Program Chemical Repository. The FDA-approved anticancer drug set is available from the Developmental Therapeutics Program at https://dtp.cancer.gov/organization/dscb/obtaining/available_plates.htm. […] The stock solutions were prepared in dimethyl sulfoxide (DMSO, Sigma-Aldrich, St. Louis, MO, cat. D2650) at 400-fold the tested concentration and stored at -70 degrees C. Prior to their use, the stock solutions were diluted in fresh medium and the final DMSO concentration in the assay was 0.25% (v/v). All drugs and investigational agents were tested over a range starting from a high concentration at or near the clinical Cmax and decreasing in half-log increments. If the clinical Cmax for an agent had not been determined, the highest concentration tested was 10 microM.
Cell Lines. The patient-derived cancer cell (PDC) lines: 156681-154-R-J1-PDC, 283228-195-R-J1-PDC, 287954-098-R-J1-PDC, 292921-168-R-J2-PDC, 349418-098-R-PDC, 425362-245-T-J1-PDC, 556581-035-R-J1-PDC, and BL0293-F563-PDC were received from the NCI Patient-Derived Models Repository (PDMR, https://pdmr.cancer.gov). The established cell lines HS-SY-2 (RRID:CVCL_8719), MPNST, and SYO-1 (RRID:CVCL_7146) were obtained from the Sloan Kettering Institute. The alveolar soft parts sarcoma cell line ASPS-1 (RRID:CVCL_S738) was established at the NCI and grown from internal seed stocks. The following established cell lines were purchased from the American Type Culture Collection (ATCC, Manassas, VA): G-401 (ATCC, cat. CRL-1441, RRID:CVCL_0270), SW982 (ATCC, cat. HTB-93, RRID:CVCL_1734), VA-ES-BJ (ATCC, cat. CRL-2138, RRID:CVCL_1785), NCI-H719 (ATCC, cat. CRL-5837, RRID:CVCL_1582), NCI-H196 (ATCC, cat. CRL-5823, RRID:CVCL_1509), NCI-H841 (ATCC, cat. CRL-5845, RRID:CVCL_1595), NCI-H1618 (ATCC, cat. CRL-5879, RRID:CVCL_1480), NCI-H1876 (ATCC, cat. CRL-5902, RRID:CVCL_1503), DMS 114 (ATCC, cat. CRL-2066; RRID:CVCL_1174), NCI-H211 (ATCC, cat. CRL-5824; RRID:CVCL_1529), and SW 1271 (ATCC, cat. CRL-2177, RRID:CVCL_1716). The small cell lung cancer cell line COR-L88 was purchased from Sigma-Aldrich (cat. 92031917-1VL, RRID:CVCL_1141). The non-small cell lung cancer cell lines NCI-H226 (RRID:CVCL_1544) and NCI-H322M (RRID:CVCL_1557) were established at the NCI and grown from internal seed stocks. Pooled donor human umbilical vein endothelial cells (HUVEC, Lonza, cat. CC-2519) and human mesenchymal stem cells (hMSC, Lonza, cat. PT-2501) were purchased from Lonza (Walkersville, MD).
Cell Culture. All cells were maintained in an incubator at 37 degrees C and 5% CO2 with 95% humidity. […]

Cc1cc(C)c(CNC(=O)c2cc(-c3ccc(CN4CCOCC4)cc3)cc3c2cnn3C2CCCC2)c(=O)[nH]1 + CC[C@@]1(O)C(=O)OCc2c1cc1n(c2=O)Cc2cc3c(CN(C)C)c(O)ccc3nc2-1
active: viability, T/C (second compound 0.0949 µM, first compound 0.0316 µM) 5.21% | viability, T/C (second compound 0.0949 µM, first compound 0.1 µM) 5.14% | viability, T/C (second compound 0.0949 µM, first compound 0.316 µM) 5.02% | viability, T/C (second compound 0.0949 µM, first compound 1 µM) 5.85% | viability, T/C (second compound 0.0949 µM, first compound 3.16 µM) 5.97% | viability, T/C (second compound 0.0949 µM, first compound 10 µM) 6.03% | viability, T/C (second compound 0.3 µM, first compound 0.0316 µM) 5.75% | viability, T/C (second compound 0.3 µM, first compound 0.1 µM) 5.52% | viability, T/C (second compound 0.3 µM, first compound 0.316 µM) 4.6% | viability, T/C (second compound 0.3 µM, first compound 1 µM) 5.28% | viability, T/C (second compound 0.3 µM, first compound 3.16 µM) 5.46% | viability, T/C (second compound 0.3 µM, first compound 10 µM) 5.71%
< 0.0316 µM: IC50 (second compound 0.03 µM) | IC50 (second compound 0.0949 µM) | IC50 (second compound 0.3 µM)
> 10 µM: IC50 (second compound 0.003 µM) | IC50 (second compound 0.00949 µM)
inactive: viability, T/C (second compound 0.003 µM, first compound 0.0316 µM) 92.3% | viability, T/C (second compound 0.003 µM, first compound 0.1 µM) 98% | viability, T/C (second compound 0.003 µM, first compound 0.316 µM) 95% | viability, T/C (second compound 0.003 µM, first compound 1 µM) 98.9% | viability, T/C (second compound 0.003 µM, first compound 3.16 µM) 103% | viability, T/C (second compound 0.003 µM, first compound 10 µM) 94.8% | viability, T/C (second compound 0.00949 µM, first compound 0.0316 µM) 74.2% | viability, T/C (second compound 0.00949 µM, first compound 0.1 µM) 84% | viability, T/C (second compound 0.00949 µM, first compound 0.316 µM) 93.5% | viability, T/C (second compound 0.00949 µM, first compound 1 µM) 90% | viability, T/C (second compound 0.00949 µM, first compound 3.16 µM) 86.5% | viability, T/C (second compound 0.00949 µM, first compound 10 µM) 62.1% | viability, T/C (second compound 0.03 µM, first compound 0.0316 µM) 37.3% | viability, T/C (second compound 0.03 µM, first compound 0.1 µM) 39% | viability, T/C (second compound 0.03 µM, first compound 0.316 µM) 37.3% | viability, T/C (second compound 0.03 µM, first compound 1 µM) 36.1% | viability, T/C (second compound 0.03 µM, first compound 3.16 µM) 38.2% | viability, T/C (second compound 0.03 µM, first compound 10 µM) 44%

Cc1sc2c(c1C)C(c1ccc(Cl)cc1)=NC(CC(=O)Nc1ccc(O)cc1)c1nnc(C)n1-2 (stereo not given) + CC[C@@]1(O)C(=O)OCc2c1cc1n(c2=O)Cc2cc3c(CN(C)C)c(O)ccc3nc2-1
inactive: viability, T/C (second compound 0.003 µM, first compound 0.00949 µM) 78.5% | viability, T/C (second compound 0.003 µM, first compound 0.03 µM) 75.2% | viability, T/C (second compound 0.003 µM, first compound 0.0949 µM) 47% | viability, T/C (second compound 0.003 µM, first compound 0.3 µM) 34.7% | viability, T/C (second compound 0.003 µM, first compound 0.949 µM) 23.3% | viability, T/C (second compound 0.003 µM, first compound 3 µM) 19% | viability, T/C (second compound 0.00949 µM, first compound 0.00949 µM) 66.1% | viability, T/C (second compound 0.00949 µM, first compound 0.03 µM) 55.6% | viability, T/C (second compound 0.00949 µM, first compound 0.0949 µM) 40.1% | viability, T/C (second compound 0.00949 µM, first compound 0.3 µM) 28.6% | viability, T/C (second compound 0.00949 µM, first compound 0.949 µM) 18.4% | viability, T/C (second compound 0.00949 µM, first compound 3 µM) 13.5% | viability, T/C (second compound 0.03 µM, first compound 0.00949 µM) 30.7% | viability, T/C (second compound 0.03 µM, first compound 0.03 µM) 33.7% | viability, T/C (second compound 0.03 µM, first compound 0.0949 µM) 23.1% | viability, T/C (second compound 0.03 µM, first compound 0.3 µM) 13.3%
0.0454 µM: IC50 (second compound 0.00949 µM)
active: viability, T/C (second compound 0.03 µM, first compound 0.949 µM) 5.6% | viability, T/C (second compound 0.03 µM, first compound 3 µM) 5.34% | viability, T/C (second compound 0.0949 µM, first compound 0.00949 µM) 5.99% | viability, T/C (second compound 0.0949 µM, first compound 0.03 µM) 5.36% | viability, T/C (second compound 0.0949 µM, first compound 0.0949 µM) 5.41% | viability, T/C (second compound 0.0949 µM, first compound 0.3 µM) 4.64% | viability, T/C (second compound 0.0949 µM, first compound 0.949 µM) 4.96% | viability, T/C (second compound 0.0949 µM, first compound 3 µM) 3.57% | viability, T/C (second compound 0.3 µM, first compound 0.00949 µM) 5.26% | viability, T/C (second compound 0.3 µM, first compound 0.03 µM) 5.21% | viability, T/C (second compound 0.3 µM, first compound 0.0949 µM) 4.85% | viability, T/C (second compound 0.3 µM, first compound 0.3 µM) 4.65% | viability, T/C (second compound 0.3 µM, first compound 0.949 µM) 4.55% | viability, T/C (second compound 0.3 µM, first compound 3 µM) 3.36%
0.101 µM: IC50 (second compound 0.003 µM)
< 0.00949 µM: IC50 (second compound 0.03 µM) | IC50 (second compound 0.0949 µM) | IC50 (second compound 0.3 µM)
